ChEMBL document CHEMBL1147283, “Bullatacin and bullatacinone: two highly potent bioactive acetogenins from Annona bullata” (J Nat Prod, 1989)
Values after ≈ are worked out from the molar mass of the structure shown. Active and inactive are the calls of the source. The rule behind the calls is not given here.

Legend:
[1] = Toxicity in brine shrimp; format: organism-based; conditions: artemia, in vivo
[2] = species: Mus musculus; assay: (§1) Cytotoxicity against mouse 9PS cells; format: functional
[3] = system: 9KB; assay: (§2) Cytotoxicity against human 9KB cells; format: functional
[4] = system: Tetranychus urticae; assay: Pesticidal activity against Tetranychus urticae at 400 ppm relative to control; format: functional
[5] = system: Aedes aegypti; assay: Pesticidal activity against Aedes aegypti larvae at 1 ppm relative to control; format: functional
[6] = system: Tetranychus urticae; assay: Pesticidal activity against Tetranychus urticae at 100 ppm relative to control; format: functional
[7] = as §1; format: functional; conditions: read-out: ED50 (the source's name)
[8] = system: Aedes aegypti; assay: Pesticidal activity against Aedes aegypti larvae at 0.5 ppm relative to control; format: functional
[9] = system: Aphis gossypii; assay: Pesticidal activity against Aphis gossypii at 400 ppm relative to control; format: functional
[10] = system: Spodoptera eridania; assay: Pesticidal activity against Spodoptera eridania at 400 ppm relative to control; format: functional
[11] = system: Aphis gossypii; assay: Pesticidal activity against Aphis gossypii at 100 ppm relative to control; format: functional
[12] = system: Spodoptera eridania; assay: Pesticidal activity against Spodoptera eridania at 100 ppm relative to control; format: functional
[13] = system: A549; assay: Cytotoxicity against human A549 cells; format: functional, cell-based; conditions: for EC50: Homo sapiens, A549, read-out: ED50 (the source's name)
[14] = system: Diabrotica undecimpunctata; assay: Pesticidal activity against Diabrotica undecimpunctata howardi at 6 ppm relative to control; format: functional
[15] = system: Diabrotica undecimpunctata; assay: Pesticidal activity against Diabrotica undecimpunctata howardi at 24 ppm relative to control; format: functional
[16] = system: Tetranychus urticae; assay: Pesticidal activity against Tetranychus urticae at 10 ppm relative to control; format: functional
[17] = system: Aphis gossypii; assay: Pesticidal activity against Aphis gossypii at 10 ppm relative to control; format: functional
[18] = system: Aedes aegypti; assay: Pesticidal activity against Aedes aegypti larvae at 10 ppm relative to control; format: functional
[19] = as §2; format: functional
[20] = system: HT-29; assay: Cytotoxicity against human HT-29 cells; format: functional, cell-based
[21] = Displacement of radiolabeled ligand form protein kinase C at 10 uM

Q: Which results are given for O=C1c2ccccc2-c2c3c(cc4ccnc1c24)OCO3 [LIRIODENINE]?
A: LC50 [1]: 1.1 µg/mL (≈ 4 µM); Activity [2]: inactive; Activity [3]: inactive

Q: For CCCCCCCCCC[C@H](O)[C@H]1CC[C@H]([C@H]2CC[C@H]([C@H](O)CCCCCCCCCC[C@@H]3CC(CC(C)=O)C(=O)O3)O2)O1 (stereo partly specified) [BULLATACINONE], which Activity [4] is on record?
A: Its Activity is 0%.

Q: What about the Activity [5] of the same compound?
A: Its Activity is 0%.

Q: And the LC50 [1]?
A: The LC50 was 0.003 µg/mL (≈ 0.00482 µM).

Q: What about the Activity [6] of the same compound?
A: Its Activity is 0%.

Q: And the EC50 [7]?
A: The EC50 was 0.00423 µg/mL (≈ 0.00679 µM).

Q: And the Activity [8]?
A: Its Activity is 0%.

Q: What about the Activity [9] of the same compound?
A: The Activity was 0%.

Q: What about the Activity [10] of the same compound?
A: Its Activity is 0%.

Q: And the Activity [11]?
A: Its Activity is 0%.

Q: And the Activity [12]?
A: The Activity was 0%.

Q: And the EC50 [13]?
A: Its EC50 is 0.001 µg/mL (≈ 0.00161 µM).

Q: And the Activity [14]?
A: The Activity was 0%.

Q: And the Activity [15]?
A: The Activity was 0%.

Q: And the Activity [16]?
A: Its Activity is 0%.

Q: What about the Activity [17] of the same compound?
A: The Activity was 0%.

Q: And the Activity [18]?
A: The Activity was 0%.

Q: And the ED50 [19]?
A: The ED50 was <1 ×10⁻¹² ug/ml.

Q: And the ED50 [20]?
A: The ED50 was 5 ×10⁻¹² ug/ml.

Q: Which LC50 [1] does the source give for CCCCCCCCCC[C@H](O)[C@H]1CC[C@H]([C@H]2CC[C@H]([C@H](O)CCCCCCCCCC[C@@H](O)CC3C[C@H](C)OC3=O)O2)O1 (stereo partly specified) [DIHYDROBULLATACIN] here?
A: Its LC50 is 0.0145 µg/mL (≈ 0.0232 µM).

Q: And the ED50 [13]?
A: The ED50 was <1 ×10⁻⁶ ug/ml.

Q: What about the ED50 [20] of the same compound?
A: The ED50 was 3.33 ×10⁻⁵ ug/ml.

Q: Which results are given for CCCCCCCCCC[C@H](OC(C)=O)[C@H]1CC[C@H]([C@H]2CC[C@H]([C@@H](CCCCCCCCCC[C@H](CC3=C[C@H](C)OC3=O)OC(C)=O)OC(C)=O)O2)O1 [BULLATACIN TRIACETATE]?
A: LC50 [1]: 5.7 µg/mL; EC50 [7]: 0.00389 µg/mL; EC50 [13]: 0.002 µg/mL; ED50 [19]: 6.85 ×10⁻⁷ ug/ml; EC50 ([20]; Homo sapiens, HT-29, read-out: ED50 (the source's name)): > 0.1 µg/mL

Q: Which LC50 [1] does the source give for CCCCCCCCCC[C@H](OC(C)=O)[C@H]1CC[C@H]([C@H]2CC[C@H]([C@@H](CCCCCCCCCC[C@@H]3C[C@@H](CC(C)=O)C(=O)O3)OC(C)=O)O2)O1 [BULLATACINONE DIACETATE] here?
A: The LC50 was > 10 µg/mL.

Q: What about the EC50 [7] of the same compound?
A: The EC50 was 0.0422 µg/mL.

Q: What about the EC50 [13] of the same compound?
A: The EC50 was 0.028 µg/mL.

Q: And the EC50 ([19]; Homo sapiens, 9KB, read-out: ED50 (the source's name))?
A: The EC50 was 0.005 µg/mL.

Q: And the ED50 [20]?
A: Its ED50 is 1 ×10⁻¹ umol/L.

Q: For CCCCCCCCCC[C@@H](O)[C@@H]1CC[C@@H]([C@@H]2CC[C@@H]([C@H](O)CCCCCCCCCC(O)CC3=CC(C)OC3=O)O2)O1 (stereo partly specified) [BULLATACIN], which Activity [21] is on record?
A: The Activity was 7%.

Q: With C=C1C[C@@]23CC[C@H]4[C@@](C)(CCC[C@]4(C)C(=O)O)[C@@H]2CCC1C3 as the compound, how does the LC50 [1] read?
A: The LC50 was 0.87 µg/mL (≈ 2.88 µM).
